Experimental findings from ChEMBL document CHEMBL1201862, “PubChem BioAssay data set” (2004) are described below.

Molecules are shown by their SMILES.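 Compound exposure: 48 hours, 5 concentrations, 96-well plates. Abbreviation: GI50, concentration required for 50% inhibition of growth.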 The source made the active and inactive calls. Cut-off read from the data, not from the text of the source: active = GI50 up to about 1.1 µM and inactive = higher.

Some test systems named below: 786-0; BT-549; DMS-114; EKVX; HCC 2998; HCT-116; HOP-62; HOP-92; Hs-578T; IGROV-1; M14; Malme-3M; NCI-H522; OVCAR-4; OVCAR-5; SF-268; SK-MEL-5; SN12C; SW-620; U-251.
What all share (assay): growth of human tumour cells (NCI), 48 h

Take `CCCCCCCCC/C=C1\CCC(CN2CCOCC2)C1=O` (stereo not given): the GI50 with 786-0 was 1.3 µM (inactive); in the assay on BT-549, 2.08 µM (inactive); in the assay with DMS-114, 2.92 µM (inactive); in the assay with EKVX it was 14.8 µM (inactive); with HCC 2998, 6.9 µM (inactive); in the assay on HCT-116, 1.75 µM (inactive). Also, the GI50 in the assay with HOP-62 was 13.6 µM (inactive); in the assay with HOP-92, 3.38 µM (inactive); in the assay on Hs-578T, 1.94 µM (inactive); in the assay on IGROV-1 it was 4.83 µM (inactive); with M14 it was 3.23 µM (inactive); in the assay on Malme-3M, 7.08 µM (inactive). Also, the GI50 in the assay on NCI-H522 is 2.64 µM (inactive); with OVCAR-4 it was 3.72 µM (inactive); in the assay on OVCAR-5, 16.9 µM (inactive); with SF-268, 3.94 µM (inactive); in the assay on SK-MEL-5, 6.65 µM (inactive); in the assay on SN12C, 3.78 µM (inactive). The GI50 is 2.28 µM (inactive) in the assay with SW-620 and 2.02 µM (inactive) in the assay on U-251.
Take `CCN(CC)CC(O)CNc1ccc(NCC2CO2)c2c1C(=O)c1ccccc1C2=O` (stereo not given): the GI50 is 0.186 µM (active) in the assay on 786-0; 0.194 µM (active) in the assay with BT-549; 1.04 µM (active) in the assay on DMS-114; 1.74 µM (inactive) in the assay with EKVX; 1.19 µM (inactive) in the assay on HCC 2998; 0.0466 µM (active) with HCT-116. Moreover, the GI50 with HOP-62 was 1.15 µM (inactive); with HOP-92, 1.75 µM (inactive); with Hs-578T it was 1.14 µM (inactive); in the assay on IGROV-1, 1.63 µM (inactive); with M14, 0.199 µM (active); with Malme-3M, 1.93 µM (inactive). The GI50 was 0.647 µM (active) in the assay with NCI-H522; 1.18 µM (inactive) with OVCAR-4; 2.3 µM (inactive) with OVCAR-5; 0.0619 µM (active) in the assay with SF-268; 0.447 µM (active) with SK-MEL-5; 0.139 µM (active) in the assay on SN12C. For the same compound, the GI50 was 0.0327 µM (active) in the assay with SW-620 and 1.24 µM (inactive) in the assay with U-251.
